Experimental data published in PMC2769999 (Biochemistry, 2009).

Molecular target: T1, V331C LacY (lactose permease), MIANS- or DACM-labelled (Escherichia coli, UniProt P02920, E325Q/K319L/V331C)
T1 sequence (P02920 1-417 K319L/E325Q/V331C): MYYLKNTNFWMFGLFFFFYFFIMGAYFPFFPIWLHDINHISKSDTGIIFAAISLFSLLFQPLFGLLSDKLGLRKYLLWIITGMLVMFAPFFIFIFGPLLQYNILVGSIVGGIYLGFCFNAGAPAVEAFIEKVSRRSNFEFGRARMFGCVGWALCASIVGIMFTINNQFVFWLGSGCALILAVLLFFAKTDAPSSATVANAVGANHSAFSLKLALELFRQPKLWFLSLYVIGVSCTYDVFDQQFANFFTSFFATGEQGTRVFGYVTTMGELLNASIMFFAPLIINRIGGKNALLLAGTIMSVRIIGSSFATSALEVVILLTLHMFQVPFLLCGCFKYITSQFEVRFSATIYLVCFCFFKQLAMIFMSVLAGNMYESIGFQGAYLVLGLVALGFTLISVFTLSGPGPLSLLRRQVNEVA
Assay: stopped-flow Trp to NPG FRET, kobs vs NPG
Format: binding

For O=[N+]([O-])c1ccc(O[C@H]2O[C@H](CO)[C@H](O)[C@H](O)[C@H]2O)cc1 [NPG, 4-nitrophenyl α-D-galactopyranoside], the Kd was 8.3 µM.
